Laboratory results reported in ChEMBL document CHEMBL1153395, “Development of a novel virtual screening cascade protocol to identify potential trypanothione reductase inhibitors” (J Med Chem, 2009).

Experiments:
Trypanothione reductase [1] = target: Trypanothione reductase (Trypanosoma brucei brucei, UniProt P39051); assay: Inhibition of Trypanosoma brucei Trypanothione reductase
Trypanothione reductase [2] = target: Trypanothione reductase (Trypanosoma cruzi, UniProt P28593); assay: Inhibition of Trypanosoma cruzi Trypanothione reductase
Sequence of Trypanothione reductase (Trypanosoma cruzi, UniProt P28593) (P28593 whole entry): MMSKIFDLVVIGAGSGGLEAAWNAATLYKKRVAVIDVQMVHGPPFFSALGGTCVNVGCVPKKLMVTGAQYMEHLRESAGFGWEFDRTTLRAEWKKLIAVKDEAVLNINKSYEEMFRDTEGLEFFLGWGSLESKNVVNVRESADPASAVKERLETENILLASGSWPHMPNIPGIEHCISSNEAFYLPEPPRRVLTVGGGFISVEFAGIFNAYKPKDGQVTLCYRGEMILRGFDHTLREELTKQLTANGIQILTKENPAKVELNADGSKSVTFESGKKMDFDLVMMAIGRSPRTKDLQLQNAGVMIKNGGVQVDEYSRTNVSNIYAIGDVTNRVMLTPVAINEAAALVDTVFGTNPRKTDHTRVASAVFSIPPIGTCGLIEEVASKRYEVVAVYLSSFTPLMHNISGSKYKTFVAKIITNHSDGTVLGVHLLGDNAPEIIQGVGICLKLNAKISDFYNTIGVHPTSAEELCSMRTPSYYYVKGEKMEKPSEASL

Sequence of Trypanothione reductase (Trypanosoma brucei brucei, UniProt P39051) (P39051 whole entry): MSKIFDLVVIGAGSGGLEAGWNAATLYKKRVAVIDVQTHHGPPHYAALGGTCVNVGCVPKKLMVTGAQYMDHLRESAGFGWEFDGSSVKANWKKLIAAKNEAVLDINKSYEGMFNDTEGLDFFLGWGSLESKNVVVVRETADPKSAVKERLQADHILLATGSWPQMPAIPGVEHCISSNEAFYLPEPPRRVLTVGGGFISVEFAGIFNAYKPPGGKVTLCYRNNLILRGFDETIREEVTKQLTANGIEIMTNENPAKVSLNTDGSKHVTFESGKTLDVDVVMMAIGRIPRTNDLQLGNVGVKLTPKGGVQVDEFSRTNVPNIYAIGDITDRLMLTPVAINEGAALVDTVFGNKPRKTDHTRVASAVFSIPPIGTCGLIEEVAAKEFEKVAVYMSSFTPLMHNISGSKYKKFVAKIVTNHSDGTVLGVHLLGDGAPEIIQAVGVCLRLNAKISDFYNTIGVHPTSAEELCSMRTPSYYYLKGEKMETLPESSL

NCCCCC(N)C(=O)Nc1ccc2ccccc2c1 (configuration not stated)
IC50 (Trypanothione reductase [1]): > 100 µM | IC50 (Trypanothione reductase [2]): > 100 µM

CC12CN3CC(C)(C1)C[N+](Cc1cccc(Br)c1)(C3)C2
IC50 (Trypanothione reductase [1]): > 100 µM | IC50 (Trypanothione reductase [2]): > 100 µM

O=C(CN1C(=O)C2CC=CCC2C1=O)Nc1ccccc1Sc1ccc(Cl)cc1 (configuration not stated)
IC50 (Trypanothione reductase [1]): > 100 µM | IC50 (Trypanothione reductase [2]): > 100 µM

Cc1ccc(N2CC(C(=O)Nc3ccccc3Sc3ccccc3)CC2=O)cc1 (configuration not stated)
IC50 (Trypanothione reductase [1]): > 100 µM | IC50 (Trypanothione reductase [2]): > 100 µM

C[N+]1(C)CCCC2c3ccccc3Sc3ccc(Cl)cc3C21 (configuration not stated)
IC50 (Trypanothione reductase [1]): 58.7 µM | IC50 (Trypanothione reductase [2]): 75.3 µM

C[N+]1(Cc2ccccc2)CCC(/N=C/C2C(=O)NC(=O)N(C3CCCCC3)C2=O)CC1 (configuration not stated)
IC50 (Trypanothione reductase [1]): > 100 µM | IC50 (Trypanothione reductase [2]): 45.2 µM

O=C(CN1C(=O)NC2(CCCCCC2)C1=O)Nc1ccccc1Sc1ccccc1
IC50 (Trypanothione reductase [1]): > 100 µM | IC50 (Trypanothione reductase [2]): > 100 µM

CC1CCCCC12NC(=O)N(CC(=O)Nc1ccccc1Sc1ccccc1)C2=O (configuration not stated)
IC50 (Trypanothione reductase [1]): > 100 µM

CC(NS(=O)(=O)c1ccccc1)C(=O)Nc1ccccc1Sc1ccccc1 (configuration not stated)
IC50 (Trypanothione reductase [1]): > 100 µM | IC50 (Trypanothione reductase [2]): > 100 µM

CN(CC(=O)Nc1ccccc1Sc1ccccc1)C1CCCCC1
IC50 (Trypanothione reductase [1]): 46.9 µM | IC50 (Trypanothione reductase [2]): 56.3 µM

CCN1CCN(C2Cc3ccccc3Sc3ccc(Cl)cc32)CC1 (configuration not stated)
IC50 (Trypanothione reductase [1]): 36 µM | IC50 (Trypanothione reductase [2]): 29.1 µM

O=C(CCN1CCN2CCCCC2C1)N1c2ccccc2Sc2ccc(Cl)cc21 (configuration not stated)
IC50 (Trypanothione reductase [1]): 31.9 µM | IC50 (Trypanothione reductase [2]): 35.4 µM

O=C(CN1CCN(c2ccccc2)CC1)Nc1ccccc1Sc1ccccc1
IC50 (Trypanothione reductase [1]): > 100 µM | IC50 (Trypanothione reductase [2]): > 100 µM

CN1CCN(C2=NC(=O)CC(C(=O)Nc3cccc(Cl)c3)N2)CC1 (configuration not stated)
IC50 (Trypanothione reductase [1]): > 100 µM | IC50 (Trypanothione reductase [2]): > 100 µM

CN(C)CCCC1Sc2ccccc2Sc2ccccc21 (configuration not stated)
IC50 (Trypanothione reductase [1]): 37.3 µM | IC50 (Trypanothione reductase [2]): 36.7 µM

CN1CCCC(CC2Oc3ccccc3Sc3ccccc32)C1 (configuration not stated)
IC50 (Trypanothione reductase [1]): 14.6 µM | IC50 (Trypanothione reductase [2]): 11.5 µM

NC(=O)C1(N2CCCCC2)CCN(CC(=O)Nc2ccccc2Sc2ccccc2)CC1
IC50 (Trypanothione reductase [1]): > 100 µM | IC50 (Trypanothione reductase [2]): > 100 µM

O=C(CN1CCCCCC1)N1c2ccccc2Sc2ccc(Cl)cc21
IC50 (Trypanothione reductase [1]): > 100 µM | IC50 (Trypanothione reductase [2]): 78.7 µM

c1ccc2c(c1)Sc1ccccc1N2CC1CN2CCC1CC2 (configuration not stated) [MEQUITAZINE]
IC50 (Trypanothione reductase [1]): 54.3 µM | IC50 (Trypanothione reductase [2]): 21.8 µM
